Laboratory results: article PMC9835592, “Allosteric inhibition of Staphylococcus aureus MenD by 1,4-dihydroxy naphthoic acid: a feedback inhibition mechanism of the menaquinone biosynthesis pathway” (Philosophical Transactions of the Royal Society B: …, 2023)
Substitutions are numbered along the chain they refer to. Where two headings read alike, the source gives them in different places.

What was measured:
[1] = target: Sau-MenDIS1 Arg98Ala mutant (Staphylococcus aureus, UniProt Q2FZL7, R98A); assay: UV spectroscopy assay of isochorismate consumption, DHNA inhibition
Pseudomonas aeruginosa = assay: Growth assay with exogenous DHNA in LB medium (OD600), control bacterium; settings: DHNA concentrations up to 150 µM, 37°C, 24 h
Procedure: (§4) Sau and Pseudomonas aeruginosa (electronic supplementary material, table S2) were grown for 18 ± 2 h in 5 ml of LB medium at 37°C and 180 r.p.m. Cultures were then diluted in fresh LB medium to contain 2.7 × 10^6 CFU ml^−1. A Nunc Microwell 96-well flat-bottom plate (Thermo Scientific) was seeded in triplicate (from three independent starter cultures) with 75 µl of each of the diluted cultures and 75 µl of 2× working solutions of DHNA, MK-4 or DHNA + MK-4 (prepared from the following stock solutions: 100 mM DHNA dissolved in dimethyl sulfoxide (DMSO), and 50 mM MK-4 (Sigma-Aldrich) dissolved in 100% ethanol). Plate wells contained a final concentration of 10^6 CFU well^−1 with 0, 50 or 100 µM DHNA for growth assays, or with 0 or 100 µM DHNA supplemented with 337 µM MK-4 for growth rescue assays. Plates were incubated at 37°C and 300 r.p.m. for 24 h. Growth was determined by measuring the OD600 of the cultures every 30 min during the incubation period. Data from biological replicates were averaged and subtracted from blank data (sterile medium with appropriate additives).

Mtb-MenD = system: Mtb-MenD; set-up: method as in PMID 32029475; settings: 0.6 µM Mtb-MenD; read-out: IC50 of DHNA, SEPHCHC activity; cited from earlier work
Sau-MenDIS1 = Sau-MenDIS1 (Staphylococcus aureus, UniProt Q2FZL7); assay: Intrinsic fluorescence quenching upon DHNA titration; type: binding
Procedure: (§1) Intrinsic fluorescence quenching experiments were performed at 25°C with a Varian Cary Eclipse Fluorescence Spectrophotometer (Agilent Technologies) with slits set at 5 nm bandwidth. The excitation wavelength was 290 nm and emission spectra were recorded in the 300–400 nm range. […] For Sau-MenD samples in the presence of the reaction ligands, the enzyme was preincubated with 100 µM ThDP only or 100 µM ThDP and 300 µM oxoglutarate for 45 min at ambient temperature. DHNA (Sigma-Aldrich) was titrated from stock solutions that were prepared in the assay buffer and kept on ice. Following DHNA addition, cuvette contents were mixed immediately and fluorescence intensity was measured.
(§2) The fluorescence intensities obtained at 340 nm were corrected for the dilution factor as well as for inner filter effects using equation (2.1),2.1 Fi corr=Fi dil ×10^Aex+Aem/2, where Fi corr is the corrected value of fluorescence intensity at the titration point, Fi dil is the dilution-corrected fluorescence intensity measured, and Aex and Aem are the absorbance of DHNA at excitation (290 nm) and emission wavelengths (340 nm).
(§3) Corrected intensities were plotted against the DHNA concentration and, to determine the Kd value for DHNA, the resulting data were fitted in GraphPad Prism 9 using equation (2.2),2.2 F=Fmax−(X+Kd+M−(X+Kd+M)^2−4XM)/2M(Fmax−Fmin), where F is the measured fluorescence intensity of Sau-MenD, Fmax is the fluorescence intensity of Sau-MenD in the absence of DHNA, Fmin is the fluorescence intensity when Sau-MenD is saturated with DHNA, M is the micromolar concentration of enzyme used in the assay, X is the micromolar DHNA concentration and Kd is the dissociation constant.

Sau-MenDATCC 25923 [2] = target: T1, Sau-MenDATCC 25923 (Staphylococcus aureus, UniProt Q5HH40); assay: as above; type: binding; settings: 1 µM enzyme
Procedure: as §1, §2, §3

[3] = target: Sau-MenDIS1 Lys309Ala mutant (Staphylococcus aureus, UniProt Q2FZL7, K309A); assay: UV spectroscopy assay of isochorismate consumption, DHNA inhibition
Sau = system: Sau; set-up: method as in PMID 35091344; settings: addition to culture medium; cited from earlier work
WT Sau-MenDIS1 = WT Sau-MenDIS1 (Staphylococcus aureus, UniProt Q2FZL7); assay: UV spectroscopy assay of isochorismate consumption (SEPHCHC synthase activity), DHNA inhibition; type: biochemical
[4] = system: Sau-MenDIS1 Lys283Ala mutant (Staphylococcus aureus, K283A); assay: UV spectroscopy assay of isochorismate consumption, DHNA inhibition; settings: four-parameter Hill fit; complete CI not determinable, best-fit value to be interpreted with caution
[5] = target: Sau-MenDIS1 Lys283Ala mutant (Staphylococcus aureus, UniProt Q5HH40, K283A); assay: as above
[6] = system: four different Sau strains; assay: Growth assay with exogenous DHNA in LB medium (OD600); settings: 37°C, 24 h
Procedure: as §4

Sau-MenDATCC 25923 [7] = target: T1, Sau-MenDATCC 25923; assay: UV spectroscopy assay of isochorismate consumption, DHNA inhibition; type: biochemical
Sau strains = assay: MK-4 growth rescue assay (OD600); type: cell-based, Staphylococcus aureus; settings: 24 h
[8] = target: the molecule itself; assay: native MS; protein exchanged from SEC buffer into 2 M ammonium acetate pH 7.4; Sau-MenDIS1 4.7 mg/ml, Sau-MenD ATCC 25923 6.3 mg/ml; gold-coated glass capillaries, Synapt XS, soft ionization
[9] = read-out: activity reduction in the presence of 12.5 µM DHNA
[10] = four-parameter logistic Hill fit of DHNA inhibition

O=C(O)c1cc(O)c2ccccc2c1O [DHNA, 1,4-dihydroxy-2-naphthoic acid]
IC50 [1]: > 10 µM
Hill slope ([1]; four-parameter Hill fit, complete CI not determinable, best-fit value to be interpreted with caution): −2.3
inhibition at 12.5 µM [1, 9]: 21%
effect on growth (Pseudomonas aeruginosa): unaffected
IC50 (Mtb-MenD): 0.053 µM
Kd (Sau-MenDIS1; + 100 μM ThDP, 1 µM enzyme, read-out: Kd for DHNA): 98 µM
Kd (Sau-MenDIS1; + 100 μM ThDP/300 μM oxoglutarate, 1 µM enzyme, read-out: Kd for DHNA): 58 µM
Kd (Sau-MenDIS1; apo-enzyme, 1 µM enzyme, 25°C, read-out: Kd for DHNA): 110 µM
Kd (Sau-MenDIS1; apo-enzyme, ThDP-bound and ThDP- and oxoglutarate-bound forms, read-out: Kd values for DHNA (span over enzyme forms)): 58 to 110 µM
Kd (Sau-MenDATCC 25923 [2]; + 100 μM ThDP/300 μM oxoglutarate): 67 µM
Kd (Sau-MenDATCC 25923 [2]; apo-enzyme, 25°C): 85 µM
IC50 [3]: 4.6 µM
Hill slope [3, 10]: −1.0
inhibition at 12.5 µM [3, 9]: 80%
effect on susceptibility of Sau to cannabidiol (Sau): increased the susceptibility
IC50 (WT Sau-MenDIS1; 0.4 µM enzyme, 100 µM ThDP, 300 µM oxoglutarate, 10 µM isochorismate, 30 min preincubation 37°C): 3.7 µM
inhibition at 12.5 µM (WT Sau-MenDIS1; 12.5 µM DHNA, 0.4 µM enzyme, 100 µM ThDP, 300 µM oxoglutarate, 10 µM isochorismate, read-out: activity reduction in the presence of 12.5 µM DHNA): 82%
Hill slope (WT Sau-MenDIS1; [10]): −1.0
Hill slope [4]: −1.2
IC50 [5]: > 10 µM
effect on growth ([6]; 50 µM DHNA, all four Sau strains): clearly impaired the growth
effect on growth ([6]; 100 µM DHNA): growth impact was more severe
effect on growth ([6]; 150 µM DHNA, all four Sau): completely inhibited
activity reduction in the presence of 12.5 µM DHNA (Sau-MenDATCC 25923 [7]; 12.5 µM DHNA, 0.4 µM enzyme, 100 µM ThDP, 300 µM oxoglutarate, 10 µM isochorismate): 87%
Hill slope (Sau-MenDATCC 25923 [7]; [10]): −0.99
IC50 (Sau-MenDATCC 25923 [7]; read-out: IC50 of DHNA, 0.4 µM enzyme, 100 µM ThDP, 300 µM oxoglutarate, 10 µM isochorismate): 2.3 µM

CC(C)=CCC/C(C)=C/CC/C(C)=C/CC/C(C)=C/CC1=C(C)C(=O)c2ccccc2C1=O [MK-4]
effect on susceptibility of Sau to cannabidiol (Sau): prevented cannabidiol-mediated growth impairment
effect on growth, MK-4 alone (Sau strains; 337 µM MK-4 (150 µg ml−1), absence of DHNA): slightly impacted the growth
growth rescue of DHNA-treated Sau (Sau strains; 337 µM MK-4 added to medium containing 100 µM DHNA, compared with 100 µM DHNA only): significant growth improvement

B1: Staphylococcus aureus IS1 MenD (SEPHCHC synthase), wild type (enzyme, UniProt Q2FZL7 1-557, looked up)
chain: MGNHKAALTKQVFTFASELYAYGVREVVISPGSRSTPLALAFEAHPNIKTWIHPDERSAAFFAVGLIKGSERPVAILCTSGTAAANYTPAIAESQISRIPLIVLTSDRPHELRSVGAPQAINQVNMFNNYVSYEFDMPIADDSKETIDAIYYQMQIASQYLYGPHKGPIHFNLPFRDPLTPDLNATELLTSEMKILPHYQKSIDASALRHILNKKKGLIIVGDMQHQEVDQILTYSTIYDLPILADPLSHLRKFDHPNVICTYDLLFRSGLDLNVDFVIRVGKPVISKKLNQWLKKTDAFQILVQNNDKIDVFPIAPDISYEISANDFFRSLMEDTTVNRVSWLEKWQCLEKKGRKEIKCYLEQATDESAFVGELIKKTSEKDALFISNSMPIRDVDNLLLNKNIDVYANRGANGIDGIVSTALGMAVHKRITLLIGDLSFYHDMNGLLMSKLNNIQMNIVLLNNDGGGIFSYLPQKESATDYFERLFGTPTGLDFEYTAKLYQFDFKRFNSVSEFKNATLLSETSTIYELITNREDNFKQHQILYQKLSEMIHDTL
notes: MenD (SEPHCHC synthase) of Staphylococcus aureus IS1; the structure numbers residues up to 557; Cloned in a modified pET30a by NcoI and HindIII; also called Sau-MenDIS1; Sau-MenD IS1; source: E. coli BL21 (DE3), purified (IMAC, TEV cleavage, subtractive IMAC, SEC); not shown: His6, N-terminal, cleaved
stoichiometry N [8]: 4

B2: Staphylococcus aureus ATCC 25923 MenD (SEPHCHC synthase) (enzyme)
chain: B1 chain with N274K, C349R, L350I, I432V, S512N
stoichiometry N [8]: 4
